One data set concerns the target T1, dopamine D2 receptor (Rattus norvegicus, UniProt P61169).
T1 construct: centrifugation and suspension were repeated to prepare a dopamine D2 receptor sample; from tissue; host or cells: corpus striatum of Wistar male rat (membrane homogenate)
Put plainly: Binding affinity for dopamine D2 receptor ([3H]-spiperone displacement). As to conditions: for IC50: Wistar rat corpus striatum receptor sample, 0.25 nM [3H]-spiperone. As to the method: Corpus striatum extracted from a Wistar male rat was homogenized in a 50 mM Tris-HCl buffer (pH 7.7), and centrifugation and suspension were repeated to prepare a dopamine D2 receptor sample. The receptor sample was reacted with a solution containing a 0.25 nM radioactive ligand of [^3H]-spiperone and the specimen drug obtained in Example 9 at a prescribed concentration. Then, the solution was filtered by suction using a multifilter MF-12G (glass filter (provided with Whatman GF/C)), and radioactivity of the filter was measured using a scintillation counter (LS6500 Beckman), so that affinity of the specimen drug for a dopamine D2 receptor was measured. Separately, the same procedure was also performed regarding TKS159 hydrochloride, and the affinity was compared.

The subject of a further data set is ddy male mouse. Put plainly: Acute toxicity in mouse, oral and intravenous administration. The class given is in vivo. The protocol: Using a ddy male mouse, the drug obtained in Example 9 and TKS159 were suspended in 0.5% methylcellulose for oral administration, and were dissolved in a physiological saline for intravenous administration. This was administered by a forced oral administration method and an intravenous administration method using a probe, and acute toxicity was observed.

The target in another data set is T2, serotonin receptor 4 (Cavia porcellus, UniProt O70528).
T2 construct: centrifugation and suspension were repeated to prepare a serotonin receptor 4 sample; from tissue; host or cells: corpus striatum of Hartley male guinea pig (membrane homogenate)
As to the kind of experiment: Binding affinity for serotonin receptor 4 ([3H]-GR113808 displacement). On the set-up: species or system guinea pig. As to conditions: for IC50: guinea pig corpus striatum receptor sample, 0.1 nM [3H]-GR113808. The protocol:
Corpus striatum extracted from a Hartley male guinea pig was homogenized in a 50 mM HEPES-NaOH buffer (pH 7.4), and centrifugation and suspension were repeated to prepare a serotonin receptor 4 sample. The receptor sample was reacted with a solution containing a 0.1 nM radioactive ligand of [^3H]-GR113808 and the specimen drug obtained in Example 9 at a prescribed concentration. Then, the solution was filtered by suction using a multifilter MF-12G (glass filter (provided with Whatman GFIC)), and radioactivity of the filter was measured using a scintillation counter (LS6500 Beckman), so that affinity of the specimen drug for a serotonin receptor 4 was measured. Separately, the same procedure was also performed regarding TKS159 hydrochloride, and the affinity was compared.

Data set [1] deals with esophagus sample extracted from a rat. As to the kind of experiment: Relaxation reaction in rat-extracted esophagus muscularis mucosae sample contracted with carbachol. Particulars: for EC50: Wistar rat esophagus muscularis mucosae, 3x10^-6 M carbachol, 1 μM methysergide, ketanserin and granisetron present. The protocol: Regarding the drug obtained in Example 9, a degree of action of promoting the movement of the digestive tract was measured using an esophagus sample extracted from a rat.
An esophagus in a chest cavity was extracted from a Wistar male rat, and muscularis propria sample containing longitudinal muscle and circular muscle was removed to prepare a muscularis mucosae sample having a length of about 2 cm. The sample was immersed in a nutrient solution (containing NaCl 118.5, KCl 4.7, CaCl2 1.3, MgSO4 0.6, NaHCO3 25.0, KH2PO4 1.2, and glucose 11.1 (unit mM)), and constriction of the sample and stability of the constriction were confirmed at 32°C using 3x10 ^-6M carbachol while a 95% 02/5% Co2 mixed gas was flown, each 1 μM of methysergide, ketanserin and granisetron were added, the drug obtained in Example 9 was accumulatively applied at a common ratio of 3 after 30 minutes, and a degree of relaxation was isotonically (stationary tension; about 0.5 g) measured via a transducer. Separately, the same procedure was also performed regarding TKS159 hydrochloride, and an intensity of the action was compared.

In a further data set the test system is Sprague-Dawley male rats. As to the kind of experiment: 28-day repeated oral administration to rats, necropsy and pathohistological test. The class given is in vivo. Particulars: rat, oral 300, 1000 or 2000 mg/kg once a day for 28 days. As to the method: Five Sprague-Dawley male rats, 4 week age, weighing each 160.3 to 169.5 g, were reared for 8 days for quarantine and training were handled as one group, and they were grouped into four groups of a control group, a 300 mg/kg administration, a 1000 mg/kg administration, and a 2000 mg/kg administration. 4-Amino-5-chloro-2-methoxy-N-[(2S,4S)-2-hydroxymethyl-4-pyrrolidinyl] benzamide monohydrochloride obtained in Example 9 was ground with a mortar, the powder was added so that the compound was contained at 300 mg, 1000 mg or 2000 mg in 10 ml of a 0.5% aqueous methylcellulose solution (manufactured by Wako Pure Chemical Industries, Ltd.; prepared using Japanese Pharmacopoeia injectable water), and the solution was stirred to prepare an administration specimen. Administration specimens for 7 days were prepared at one time, once per week, stored in a refrigerator, and used. One-time dose was defined to be 10 ml/kg, and the specimen was forcibly administered orally at 9 o'clock to 12 o'clock for 28 days once a day using a rat stomach tube. Only a 0.5% aqueous methylcellulose solution was administered at 10 ml/kg to a control group.
During training and drug administration period, a solid feed (CE-2 manufactured by CLEA Japan Inc.) and tap water were freely given.

Data set [2] deals with beagle dogs. Put plainly: 4-week repeated oral administration to beagle dogs, necropsy and pathohistological test. The class given is in vivo. Particulars: beagle dog, oral 100 mg/kg once a day for 4 weeks. As to the method: Using three beagle dogs as a test animal, 4-amino-5-chloro-2-methoxy-N-[(2S,4S)-2-hydroxymethyl-4-pyrrolidinyl]benzamide monohydrochloride obtained in Example 9 was repeatedly administered orally at a dose of 100 mg/kg once a day for 4 weeks. Thereafter, the animals were sacrificed by exsanguination from carotid artery under anesthesia, and the brain, aorta, heart, lung, and liver were extracted. These organs were examined with naked eyes, fixed with a 0.1% phosphate-buffered 10% formalin solution, and stored. Each organ was embedded in paraffin, and sliced to prepare a hematoxine orange-stained sample. Pathohistological test on the sections was performed using a light microscope.

Data set [3] deals with beagle dogs. As to the kind of experiment: Repeated oral administration toxicity tests of TKS159 in beagle dogs (4, 13 and 52 weeks). Format: in vivo. As to the method:
Separately, beagle dogs (female and male) were divided into 4 groups consisting of 6, 4, 4 and 6 dogs and, among them, to 3 groups were repeatedly administered orally TKS 159 at a dose of 2.5, 6.0 and 15.0 mg/kg, and to a control group was repeatedly administered orally an excipient, for 13 weeks, and observation of the general status and various tests were performed. Further, regarding a control group and a case of a part of a 15.0 mg/kg administration group, after a repeated administration period for 13 weeks, a recovery test of no administration of a drug was performed for 4 weeks, and then the same test was performed. […] Separately, beagle dogs (female and male) were divided into 4 groups containing 5, 3, 3 and 5 dogs and, among them, to 3 groups was repeatedly administered orally TKS159 at a dose of 0.25, 0.75 and 2.25 mg/kg, to a control group was repeatedly administered an excipient orally, for 52 weeks, and observation of the general status and various tests were performed. Further, regarding a control group and a case of a part of a 2.25 mg/kg administration group, after a repeated administration period for 52 weeks, a recovery test of no administration of a drug was performed for 4 weeks, and then the same test was performed.

Setting [4] is: beagle dogs, 13 weeks, 15.0 mg/kg group.
The mark [5] stands for this setting: beagle dogs, 52 weeks, 2.25 mg/kg group.
The mark [6] stands for this setting: male beagle dogs, 4 weeks, 100 mg/kg group.

Structures can show the parent of a compound that is named as a salt.

T1 sequence (P61169 whole entry): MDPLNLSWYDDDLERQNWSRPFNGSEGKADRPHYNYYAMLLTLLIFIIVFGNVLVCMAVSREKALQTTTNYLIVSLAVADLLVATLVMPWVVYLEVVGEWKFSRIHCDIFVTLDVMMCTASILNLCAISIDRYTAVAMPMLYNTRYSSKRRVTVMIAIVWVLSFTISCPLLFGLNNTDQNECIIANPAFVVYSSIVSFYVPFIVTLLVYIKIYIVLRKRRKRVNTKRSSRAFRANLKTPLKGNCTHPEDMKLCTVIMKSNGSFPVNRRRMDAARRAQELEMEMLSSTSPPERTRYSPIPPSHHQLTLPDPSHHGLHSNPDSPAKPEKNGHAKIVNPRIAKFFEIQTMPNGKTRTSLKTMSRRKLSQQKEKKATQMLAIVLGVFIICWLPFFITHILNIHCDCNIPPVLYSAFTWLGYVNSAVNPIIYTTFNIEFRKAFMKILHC
T2 sequence (O70528 whole entry): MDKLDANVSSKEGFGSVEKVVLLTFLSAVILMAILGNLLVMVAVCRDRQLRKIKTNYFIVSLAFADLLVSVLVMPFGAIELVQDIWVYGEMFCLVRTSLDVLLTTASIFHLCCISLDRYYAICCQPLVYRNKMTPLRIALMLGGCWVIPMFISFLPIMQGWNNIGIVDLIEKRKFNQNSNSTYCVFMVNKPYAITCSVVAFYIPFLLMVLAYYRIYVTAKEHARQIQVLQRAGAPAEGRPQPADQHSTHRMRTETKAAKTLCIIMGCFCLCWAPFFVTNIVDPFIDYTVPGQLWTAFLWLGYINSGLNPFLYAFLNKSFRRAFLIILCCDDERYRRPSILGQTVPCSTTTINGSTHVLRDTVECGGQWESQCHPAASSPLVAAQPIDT

For the compound `CCN1CC(NC(=O)c2cc(Cl)c(N)cc2OC)CC1CO` (stereo not drawn) [TKS159 hydrochloride], the IC50 on dopamine D2 receptor was 3800 nM; at serotonin receptor 4, 450 nM. The Survival result in the data set on ddy male mouse (intravenous administration, 132 mg/kg) is recorded as “No survival among 6”; in the data set on ddy male mouse (oral administration, 1080 mg/kg) it was “No survival among 2”. For the same compound, the response in data set [1] was half-maximal at 1100 nM (EC50).

In the case of `COc1cc(N)c(Cl)cc1C(=O)N[C@@H]1CN[C@H](CO)C1.Cl` [Example 9, 4-amino-5-chloro-2-methoxy-N-[(2S,4S)-2-hydroxymethyl-4-pyrrolidinyl]benzamide monohydrochloride], the “affinity for a dopamine D2 receptor as compared with TKS159 hydrochloride” value at dopamine D2 receptor (FIG. 2) is “weaker”. For the same compound, the IC50 on dopamine D2 receptor worked out at 34000 nM; at serotonin receptor 4, 250 nM. Further, in the data set with Sprague-Dawley male rats, the “organs observed with naked eyes” value is “Abnormality was not seen with naked eyes in any organ”. Further, the pathohistological test result is “encephalomalacia, arteritis and thrombus formation were not recognized” in the data set on Sprague-Dawley male rats; “encephalomalacia, arteritis and thrombus formation were not recognized” with beagle dogs [2]. Also, the “affinity for a serotonin receptor 4 as compared with TK5159 hydrochloride” value at serotonin receptor 4 (FIG. 1) was “stronger”. In addition, the “relaxing action as compared with TKS159 hydrochloride” value in data set [1] (FIG. 3) was “stronger”. For the same compound, in data set [1], a half-maximal effect (EC50) was put at 700 nM. For the same compound, in the data set on beagle dogs [2] (brain, aorta, heart, lung, liver), the “organs examined with naked eyes” value was “Abnormality was not seen in any organ”.

With `CCN1C[C@@H](NC(=O)c2cc(Cl)c(N)cc2OC)C[C@H]1CO` [TKS159, 4-Amino-5-chloro-2-methoxy-N-[(2S,4S)-1-ethyl-2-hydroxymethyl-4-pyrrolidinyl]benzamide], in the data set on beagle dogs [3] (setting [4]), the “findings in other one case” value is “necrosis of an artery septum and surrounding cell infiltration were recognized”; the “findings in two cases” value is recorded as “arteritis was recognized”. Besides, in the data set with beagle dogs [3] (setting [5]), the arteritis findings entry was “arteritis was observed in thighbone marrow and mediastinal lymph node in one case among male 5 cases”; the malacia findings result was “malacia was seen in piriform lobe and hippocampus in other one case”. In the data set with beagle dogs [3] (setting [6]), the “findings in death case” value is “thrombus formation was recognized in a lung artery and a heart coronary artery, and slight bleeding was recognized in a cavity surrounding a blood vessel in a cerebral parenchyma”; the “findings in survival case” value is “big thrombus formation was recognized in a left ventricle, and thrombus formation was recognized in a kidney arcuate artery and an interlobar artery”.
